Source: PubChem BioAssay AID330 (DTP/NCI, 2004)
“And” between values parts separate entries of the source, which are not always exact repeats. Identical values can stand only once. Toxic doses and inconclusive results are not listed.

System: P388 leukemia ip, CD2F1 mice, survival T/C
Assay: NCI In Vivo Anticancer Drug Screen. Data for tumor model P388 Leukemia (intraperitoneal) in CD2F1 (CDF1) mice
Conditions: endpoint: median survival time, higher = longer survival
In short: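 Mice carrying the transplanted tumor received test compound or vehicle. Survival was recorded in each group, and the value is the treated-group measurement divided by that of the vehicle-treated control group.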

[1] = dose: 50.0 mg/kg/injection, schedule: Q01DX005 (ip), vehicle: Klucel (hydroxypropylcellulose) (HPC)
[2] = dose: 100.0 mg/kg/injection, schedule: Q01DX005 (ip), vehicle: Klucel (hydroxypropylcellulose) (HPC)
[3] = dose: 200.0 mg/kg/injection, schedule: Q01DX005 (ip), vehicle: Klucel (hydroxypropylcellulose) (HPC)
[4] = dose: 25.0 mg/kg/injection, schedule: Q01DX009 (ip), vehicle: saline with Tween-80
[5] = dose: 50.0 mg/kg/injection, schedule: Q01DX009 (ip), vehicle: saline with Tween-80
[6] = dose: 100.0 mg/kg/injection, schedule: Q01DX009 (ip), vehicle: saline with Tween-80
[7] = dose: 200.0 mg/kg/injection, schedule: Q01DX009 (ip), vehicle: saline with Tween-80
[8] = dose: 60.0 mg/kg/injection, schedule: Q01DX005 (ip), vehicle: saline with Tween-80
[9] = dose: 50.0 mg/kg/injection, schedule: Q01DX005 (ip), vehicle: saline with Tween-80
[10] = dose: 100.0 mg/kg/injection, schedule: Q01DX005 (ip), vehicle: saline with Tween-80
[11] = dose: 200.0 mg/kg/injection, schedule: Q01DX005 (ip), vehicle: saline with Tween-80
[12] = dose: 60.0 mg/kg/injection, schedule: Q01DX005 (ip), vehicle: saline
[13] = dose: 120.0 mg/kg/injection, schedule: Q01DX005 (ip), vehicle: saline
[14] = dose: 240.0 mg/kg/injection, schedule: Q01DX005 (ip), vehicle: saline

Structure (SMILES): COC(=O)CCSC(=O)Nc1cccc(C(F)(F)F)c1
- T/C [1]: 97 % of control
- T/C [2]: 98 % of control
- T/C [3]: 104 % of control

Structure (SMILES): CCCn1cnc2c(=S)nc[nH]c21
- T/C [4]: 86 % of control
- T/C [5]: 90 % of control
- T/C [6]: 109 % of control

Structure (SMILES): O=C1SC(c2ccccc2)(c2ccccc2)c2cscc21
- T/C [4]: 92 % of control
- T/C [5]: 94 % of control
- T/C [6]: 99 % of control
- T/C [7]: 90 % of control

Structure (SMILES): C=C(C)C(O)C#CCO[Si](c1ccccc1)(c1ccccc1)C(C)(C)C (stereo not given)
- T/C [8]: 95 % of control
- T/C (dose: 120.0 mg/kg/injection, schedule: Q01DX005 (ip), vehicle: saline with Tween-80): 97 % of control
- T/C (dose: 240.0 mg/kg/injection, schedule: Q01DX005 (ip), vehicle: saline with Tween-80): 98 % of control

Structure (SMILES): CC#CCOCC1CO1 (stereo not given)
- T/C (dose: 14.6 mg/kg/injection, schedule: Q01DX009 (ip), vehicle: saline): 100 % of control
- T/C (dose: 22.0 mg/kg/injection, schedule: Q01DX009 (ip), vehicle: saline): 109 % of control
- T/C (dose: 33.0 mg/kg/injection, schedule: Q01DX009 (ip), vehicle: saline): 118 % of control
- T/C (dose: 50.0 mg/kg/injection, schedule: Q01DX009 (ip), vehicle: saline): 118 % of control

Structure (SMILES): CC1(C)OCC(C2OC3OC(C)(C)OC3C2NN)O1 (stereo not given)
- T/C [9]: 95 % of control
- T/C [10]: 98 % of control
- T/C [11]: 100 % of control

Structure (SMILES): C=C(C)CNC(=O)C(C)O (stereo not given)
- T/C [9]: 97 % of control
- T/C [10]: 93 % of control
- T/C [11]: 99 % of control

Structure (SMILES): O/N=C(/CC(c1ccccc1)N1CCOCC1)c1ccccc1 (stereo not given)
- T/C [1]: 93 % of control
- T/C [2]: 90 % of control

Structure (SMILES): C=CCN1CCC23c4c5ccc(O)c4OC2C(=NN=C2CCC4(O)C6Cc7ccc(O)c8c7C4(CCN6CC=C)C2O8)CCC3(O)C1C5 (stereo not given)
- T/C (dose: 15.0 mg/kg/injection, schedule: Q01DX005 (ip), vehicle: saline with Tween-80): 92 % of control
- T/C (dose: 30.0 mg/kg/injection, schedule: Q01DX005 (ip), vehicle: saline with Tween-80): 90 % of control
- T/C [8]: 100 % of control and 101 % of control

Structure (SMILES): O=C1NC2NC(=O)NC2N1 (stereo not given)
- T/C (dose: 100.0 mg/kg/injection, schedule: Q04DX003 (ip), vehicle: Klucel (hydroxypropylcellulose) (HPC)): 94 % of control
- T/C (dose: 200.0 mg/kg/injection, schedule: Q04DX003 (ip), vehicle: Klucel (hydroxypropylcellulose) (HPC)): 107 % of control
- T/C (dose: 400.0 mg/kg/injection, schedule: Q04DX003 (ip), vehicle: Klucel (hydroxypropylcellulose) (HPC)): 100 % of control

Structure (SMILES): C=C(C)C1CC2(C)C(C)C(OC(=O)/C(C)=C\C)CCC2C(O)C1=O (stereo not given)
- T/C (dose: 15.0 mg/kg/injection, schedule: Q04DX002 (ip), vehicle: distilled water + alcohol): 96 % of control
- T/C (dose: 30.0 mg/kg/injection, schedule: Q04DX002 (ip), vehicle: distilled water + alcohol): 104 % of control
- T/C (dose: 57.5 mg/kg/injection, schedule: Q04DX002 (ip), vehicle: distilled water + alcohol): 107 % of control

Structure (SMILES): C1CSC(SCCCSC2SCCCS2)SC1
- T/C (dose: 100.0 mg/kg/injection, schedule: Q04DX003 (ip), vehicle: saline with Tween-80): 99 % of control
- T/C (dose: 200.0 mg/kg/injection, schedule: Q04DX003 (ip), vehicle: saline with Tween-80): 104 % of control
- T/C (dose: 400.0 mg/kg/injection, schedule: Q04DX003 (ip), vehicle: saline with Tween-80): 94 % of control

Structure (SMILES): C1CC[N-]CC1.C1CC[N-]CC1.C1CC[N-]CC1.[Cl][Rh]([Cl])[Cl]
- T/C (dose: 1.0 mg/kg/injection, schedule: Q03HX024 (ip), vehicle: saline): 100 % of control and 96 % of control
- T/C (dose: 2.0 mg/kg/injection, schedule: Q03HX016 (ip), vehicle: saline): 97 % of control
- T/C (dose: 2.0 mg/kg/injection, schedule: Q03HX024 (ip), vehicle: saline): 96 % of control and 98 % of control
- T/C (dose: 4.0 mg/kg/injection, schedule: Q01DX009 (ip), vehicle: saline): 98 % of control
- T/C (dose: 4.0 mg/kg/injection, schedule: Q03HX016 (ip), vehicle: saline): 96 % of control
- T/C (dose: 4.0 mg/kg/injection, schedule: Q03HX024 (ip), vehicle: saline): 96 % of control
- T/C (dose: 8.0 mg/kg/injection, schedule: Q03HX016 (ip), vehicle: saline): 110 % of control and 96 % of control
- T/C (dose: 8.0 mg/kg/injection, schedule: Q03HX024 (ip), vehicle: saline): 97 % of control
- T/C (dose: 8.0 mg/kg/injection, schedule: Q04DX003 (ip), vehicle: saline): 100 % of control
- T/C (dose: 16.0 mg/kg/injection, schedule: Q01DX001 (ip), vehicle: saline): 110 % of control
- T/C (dose: 16.0 mg/kg/injection, schedule: Q03HX008 (ip), vehicle: saline): 119 % of control
- T/C (dose: 16.0 mg/kg/injection, schedule: Q03HX024 (ip), vehicle: saline): 97 % of control
- T/C [4]: 154 % of control
- T/C (dose: 32.0 mg/kg/injection, schedule: Q01DX009 (ip), vehicle: saline): 118 % of control
- T/C (dose: 32.0 mg/kg/injection, schedule: Q03HX008 (ip), vehicle: saline): 110 % of control
- T/C (dose: 32.0 mg/kg/injection, schedule: Q03HX016 (ip), vehicle: saline): 96 % of control
- T/C (dose: 32.0 mg/kg/injection, schedule: Q03HX024 (ip), vehicle: saline): 96 % of control and 97 % of control
- T/C (dose: 64.0 mg/kg/injection, schedule: Q01DX001 (ip), vehicle: saline): 110 % of control
- T/C (dose: 64.0 mg/kg/injection, schedule: Q01DX009 (ip), vehicle: saline): 118 % of control
- T/C (dose: 64.0 mg/kg/injection, schedule: Q08DX002 (ip), vehicle: saline): 110 % of control

Structure (SMILES): NNC(=O)C1CC2CCCCC2CC1O (stereo not given)
- T/C (dose: 100.0 mg/kg/injection, schedule: Q04DX002 (ip), vehicle: Klucel (hydroxypropylcellulose) (HPC)): 101 % of control
- T/C (dose: 200.0 mg/kg/injection, schedule: Q04DX002 (ip), vehicle: Klucel (hydroxypropylcellulose) (HPC)): 99 % of control
- T/C (dose: 400.0 mg/kg/injection, schedule: Q04DX002 (ip), vehicle: Klucel (hydroxypropylcellulose) (HPC)): 108 % of control

Structure (SMILES): Cc1ccccc1NP1(=O)OCCCN1Cc1ccccc1Cl (stereo not given)
- T/C [9]: 99 % of control
- T/C [10]: 93 % of control
- T/C [11]: 93 % of control

Structure (SMILES): O=C(NC1(C(=O)O)CC1c1ccccc1)c1ccccc1 (stereo not given)
- T/C (dose: 60.0 mg/kg/injection, schedule: Q01DX005 (ip), vehicle: Klucel (hydroxypropylcellulose) (HPC)): 100 % of control
- T/C (dose: 120.0 mg/kg/injection, schedule: Q01DX005 (ip), vehicle: Klucel (hydroxypropylcellulose) (HPC)): 94 % of control
- T/C (dose: 240.0 mg/kg/injection, schedule: Q01DX005 (ip), vehicle: Klucel (hydroxypropylcellulose) (HPC)): 100 % of control

Structure (SMILES): C(=N\Nc1nc2ccccc2s1)/c1ccc(/C=N/Nc2nc3ccccc3s2)cc1
- T/C [5]: 105 % of control
- T/C [6]: 105 % of control
- T/C [7]: 102 % of control

Structure (SMILES): COCCOc1cccc2c1C(=O)c1ccccc1C2=O
- T/C [9]: 102 % of control
- T/C [10]: 91 % of control

Structure (SMILES): Cc1cc(=O)n2c([nH]c3ccccc32)c1N=Nc1ccccc1
- T/C [1]: 93 % of control
- T/C [2]: 92 % of control
- T/C [3]: 100 % of control

Structure (SMILES): c1ccc(CNNc2nn[nH]n2)cc1
- T/C (dose: 100.0 mg/kg/injection, schedule: Q01DX001 (ip), vehicle: Klucel (hydroxypropylcellulose) (HPC)): 96 % of control
- T/C (dose: 200.0 mg/kg/injection, schedule: Q01DX001 (ip), vehicle: Klucel (hydroxypropylcellulose) (HPC)): 95 % of control
- T/C (dose: 400.0 mg/kg/injection, schedule: Q01DX001 (ip), vehicle: Klucel (hydroxypropylcellulose) (HPC)): 96 % of control

Structure (SMILES): O=P1(NCCCNP2(=O)OC(CCl)=NC2c2ccccc2Cl)OC(CCl)=NC1c1ccccc1Cl (stereo not given)
- T/C [12]: 93 % of control
- T/C [13]: 98 % of control
- T/C [14]: 103 % of control

Structure (SMILES): COc1cc(C(=O)N/N=C/c2cccc([N+](=O)[O-])c2)cc(OC)c1OC
- T/C [5]: 102 % of control and 115 % of control
- T/C [6]: 123 % of control
- T/C [7]: 163 % of control
- T/C (dose: 400.0 mg/kg/injection, schedule: Q01DX009 (ip), vehicle: saline with Tween-80): 168 % of control

Structure (SMILES): CC(=O)Nc1c(I)c(C(=O)NC2C(O)OC(CO)C(O)C2O)c(I)c(N(C)C(C)=O)c1I (stereo not given)
- T/C [12]: 100 % of control
- T/C [13]: 100 % of control
- T/C [14]: 107 % of control

Structure (SMILES): CC(=O)N/C(=C\c1ccc(Cl)cc1)C(=O)c1ccc(C)cc1
- T/C (dose: 50.0 mg/kg/injection, schedule: Q01DX001 (ip), vehicle: saline with Tween-80): 99 % of control
- T/C (dose: 100.0 mg/kg/injection, schedule: Q01DX001 (ip), vehicle: saline with Tween-80): 97 % of control
- T/C (dose: 200.0 mg/kg/injection, schedule: Q01DX001 (ip), vehicle: saline with Tween-80): 97 % of control
